{"source": "ChEMBL document CHEMBL4308841", "about": "“Synthesis, in vitro antiproliferative activity, and kinase inhibitory effects of pyrazole-containing diarylureas and diarylamides” (Eur J Med Chem, 2018)", "format_in_all_cases": "functional, cell-based", "key": {"[1]": {"system": "CCRF-CEM", "experiment": "Growth inhibition of human CCRF-CEM cells incubated for 48 hrs by sulforhodamine B assay"}, "[2]": {"system": "HL-60(TB)", "experiment": "Growth inhibition of human HL-60(TB) cells incubated for 48 hrs by sulforhodamine B assay", "conditions": "HL-60, 48 h"}, "[3]": {"system": "IGROV-1", "experiment": "Growth inhibition of human IGROV1 cells incubated for 48 hrs by sulforhodamine B assay", "conditions": "IGROV-1, 48 h, read-out: TGI"}, "[4]": {"system": "T47D", "experiment": "Growth inhibition of human T47D cells incubated for 48 hrs by sulforhodamine B assay"}, "[5]": {"system": "M14", "experiment": "Growth inhibition of human M14 cells incubated for 48 hrs by sulforhodamine B assay", "conditions": "M14, 48 h"}, "[6]": {"system": "MDA-MB-231", "experiment": "Growth inhibition of human MDA-MB-231 cells incubated for 48 hrs by sulforhodamine B assay", "conditions": "MDA-MB-231, 48 h"}, "[7]": {"system": "HT-29", "experiment": "Growth inhibition of human HT-29 cells incubated for 48 hrs by sulforhodamine B assay", "conditions": "HT-29, 48 h"}, "[8]": {"system": "Malme-3M", "experiment": "Growth inhibition of human MALME-3M cells incubated for 48 hrs by sulforhodamine B assay"}, "[9]": {"system": "HOP-92", "experiment": "Growth inhibition of human HOP92 cells incubated for 48 hrs by sulforhodamine B assay", "conditions": "HOP-92, 48 h"}, "[10]": {"system": "KM12", "experiment": "Growth inhibition of human KM12 cells incubated for 48 hrs by sulforhodamine B assay", "conditions": "KM12, 48 h"}, "[11]": {"system": "SK-MEL-2", "experiment": "Growth inhibition of human SK-MEL-2 cells incubated for 48 hrs by sulforhodamine B assay", "conditions": "SK-MEL-2, 48 h"}, "[12]": {"system": "HOP-62", "experiment": "Growth inhibition of human HOP62 cells incubated for 48 hrs by sulforhodamine B assay", "conditions": "HOP-62, 48 h"}, "[13]": {"system": "NCI/ADR-RES", "experiment": "Growth inhibition of human NCI/ADR-RES cells incubated for 48 hrs by sulforhodamine B assay", "conditions": "read-out: TGI"}, "[14]": {"system": "NCI-H226", "experiment": "Growth inhibition of human NCI-H226 cells incubated for 48 hrs by sulforhodamine B assay", "conditions": "NCI-H226, 48 h"}, "[15]": {"system": "NCI-H23", "experiment": "Growth inhibition of human NCI-H23 cells incubated for 48 hrs by sulforhodamine B assay", "conditions": "NCI-H23, 48 h"}, "[16]": {"system": "TK-10", "experiment": "Growth inhibition of human TK10 cells incubated for 48 hrs by sulforhodamine B assay", "conditions": "TK-10, 48 h"}, "[17]": {"system": "PC-3", "experiment": "Growth inhibition of human PC3 cells incubated for 48 hrs by sulforhodamine B assay", "conditions": "PC-3, 48 h"}, "[18]": {"system": "MDA-MB-468", "experiment": "Growth inhibition of human MDA-MB-468 cells incubated for 48 hrs by sulforhodamine B assay", "conditions": "MDA-MB-468, 48 h"}, "[19]": {"system": "NCI-H522", "experiment": "Growth inhibition of human NCI-H522 cells incubated for 48 hrs by sulforhodamine B assay", "conditions": "NCI-H522, 48 h"}, "[20]": {"system": "COLO 205", "experiment": "Growth inhibition of human COLO205 cells incubated for 48 hrs by sulforhodamine B assay", "conditions": "COLO 205, 48 h"}, "[21]": {"system": "UACC-62", "experiment": "Growth inhibition of human UACC62 cells incubated for 48 hrs by sulforhodamine B assay", "conditions": "UACC-62, 48 h"}, "[22]": {"system": "ACHN", "experiment": "Growth inhibition of human ACHN cells incubated for 48 hrs by sulforhodamine B assay", "conditions": "read-out: TGI"}, "[23]": {"system": "HCT-116", "experiment": "Growth inhibition of human HCT116 cells incubated for 48 hrs by sulforhodamine B assay", "conditions": "HCT-116, 48 h"}, "[24]": {"system": "MCF7", "experiment": "Growth inhibition of human MCF7 cells incubated for 48 hrs by sulforhodamine B assay", "conditions": "MCF7, 48 h, read-out: TGI"}, "[25]": {"system": "SF-295", "experiment": "Growth inhibition of human SF295 cells incubated for 48 hrs by sulforhodamine B assay", "conditions": "SF-295, 48 h"}, "[26]": {"system": "SK-MEL-5", "experiment": "Growth inhibition of human SK-MEL-5 cells incubated for 48 hrs by sulforhodamine B assay", "conditions": "SK-MEL-5, 48 h"}, "[27]": {"system": "MOLT-4", "experiment": "Growth inhibition of human MOLT4 cells incubated for 48 hrs by sulforhodamine B assay", "conditions": "MOLT-4, 48 h, read-out: TGI"}, "[28]": {"system": "SF-539", "experiment": "Growth inhibition of human SF539 cells incubated for 48 hrs by sulforhodamine B assay", "conditions": "SF-539, 48 h"}, "[29]": {"system": "MDA-MB-435", "experiment": "Growth inhibition of human MDA-MB-435 cells incubated for 48 hrs by sulforhodamine B assay", "conditions": "MDA-MB-435, 48 h"}, "[30]": {"system": "RPMI-8226", "experiment": "Growth inhibition of human RPMI8226 cells incubated for 48 hrs by sulforhodamine B assay", "conditions": "RPMI-8226, 48 h"}, "[31]": {"system": "UACC-257", "experiment": "Growth inhibition of human UACC257 cells incubated for 48 hrs by sulforhodamine B assay", "conditions": "UACC-257, 48 h"}}}
{"molecule": "CNC(=O)c1cc(Oc2ccc(NC(=O)Nc3ccc(Cl)c(C(F)(F)F)c3)cc2)ccn1", "note": "[SORAFENIB]", "values": [{"measurement": "IC50", "setting": "[1]", "value": 2, "unit": "µM"}, {"measurement": "IC50", "setting": "[2]", "value": 1.58, "unit": "µM"}, {"measurement": "TGI", "setting": "[2]; read-out: TGI", "value": 100, "unit": "µM"}, {"measurement": "TGI", "setting": "[3]", "value": 10, "unit": "µM"}, {"measurement": "IC50", "setting": "[4]", "value": 1.58, "unit": "µM"}, {"measurement": "IC50", "setting": "[5]", "value": 2, "unit": "µM"}, {"measurement": "IC50", "setting": "[6]", "value": 1.26, "unit": "µM"}, {"measurement": "IC50", "setting": "[7]", "value": 2, "unit": "µM"}, {"measurement": "IC50", "setting": "[8]", "value": 2, "unit": "µM"}, {"measurement": "IC50", "setting": "[9]", "value": 1.58, "unit": "µM"}, {"measurement": "TGI", "setting": "[9]; read-out: TGI", "value": 5.01, "unit": "µM"}, {"measurement": "IC50", "setting": "[10]", "value": 1.58, "unit": "µM"}, {"measurement": "IC50", "setting": "[11]", "value": 2, "unit": "µM"}, {"measurement": "IC50", "setting": "[12]", "value": 2, "unit": "µM"}, {"measurement": "TGI", "setting": "[13]", "value": 7.94, "unit": "µM"}, {"measurement": "IC50", "setting": "[14]", "value": 2, "unit": "µM"}, {"measurement": "IC50", "setting": "[15]", "value": 2, "unit": "µM"}, {"measurement": "TGI", "setting": "[15]; read-out: TGI", "value": 5.01, "unit": "µM"}, {"measurement": "IC50", "setting": "[16]", "value": 3.98, "unit": "µM"}, {"measurement": "TGI", "setting": "[16]; read-out: TGI", "value": 10, "unit": "µM"}, {"measurement": "IC50", "setting": "[17]", "value": 2, "unit": "µM"}, {"measurement": "IC50", "setting": "[18]", "value": 2, "unit": "µM"}, {"measurement": "IC50", "setting": "[19]", "value": 2, "unit": "µM"}, {"measurement": "IC50", "setting": "[20]", "value": 2, "unit": "µM"}, {"measurement": "IC50", "setting": "[21]", "value": 1.58, "unit": "µM"}, {"measurement": "TGI", "setting": "[22]", "value": 10, "unit": "µM"}, {"measurement": "IC50", "setting": "[23]", "value": 1.58, "unit": "µM"}, {"measurement": "TGI", "setting": "[24]", "value": 7.94, "unit": "µM"}, {"measurement": "IC50", "setting": "[25]", "value": 1.58, "unit": "µM"}, {"measurement": "IC50", "setting": "[26]", "value": 1.58, "unit": "µM"}, {"measurement": "TGI", "setting": "[27]", "value": 100, "unit": "µM"}, {"measurement": "IC50", "setting": "[28]", "value": 1.58, "unit": "µM"}, {"measurement": "IC50", "setting": "[29]", "value": 1.58, "unit": "µM"}, {"measurement": "IC50", "setting": "[30]", "value": 1.58, "unit": "µM"}, {"measurement": "IC50", "setting": "[31]", "value": 2, "unit": "µM"}, {"measurement": "TGI", "setting": "[31]; read-out: TGI", "value": 5.01, "unit": "µM"}]}
